From US20050250677A1, “Glycopeptide antibiotic derivatives” (priority 2002, published 2005) come the findings set out here.

Like-named read-outs stand apart in the source and are kept apart here. A value given as a limit tells only on which side of the number the result lay.

Series [1] relates to HIV-1 (IIIB). Briefly: Inhibition of HIV-1 (IIIB)-induced cytopathicity (giant cell formation) in CEM cells. Type of series: cell-based. To be noted: read-out: EC50 HIV-1 (concentration required to inhibit HIV-induced giant cell formation by 50%); HIV-1, CEM cell cultures. On the procedure:
(§1) A variety of glycopeptide antibiotic derivatives of vancomycin, eremomycin and teicoplanin including their aglycon derivatives were evaluated for their inhibitory activity against HIV-1 (IIIB) and HIV-2(ROD) in CEM cell cultures.

The test system of series [2] is HIV-2(ROD). Briefly: Inhibition of HIV-2 (ROD)-induced cytopathicity (giant cell formation) in CEM cells. It counts as cell-based. To be noted: read-out: EC50 HIV-2 (concentration required to inhibit HIV-induced giant cell formation by 50%); HIV-2, CEM cell cultures. Here is the method:
as §1
(In general: Protection from cytopathic effect is a common read-out in antiviral testing.)

For series [3], the system named is murine leukemia L1210. In words: Cytostatic activity assay, L1210 cells. Type of series: cell-based. The note with it: read-out: IC50 L1210 (compound concentration required to inhibit tumor cell proliferation by 50%).
The subject of series [4] is human lymphocyte Molt4/clone 8. Briefly: Cytostatic activity assay, Molt4/clone 8 cells. To be noted: read-out: IC50 Molt4/C8 (compound concentration required to inhibit tumor cell proliferation by 50%). It counts as cell-based.
Series [5] relates to human lymphocyte CEM. In words: Cytostatic activity assay, CEM cells. It counts as cell-based. The note with it: read-out: IC50 CEM (compound concentration required to inhibit tumor cell proliferation by 50%).
Series [6] concerns VZV (wild-type strains). In words: Anti-VZV assay (wild-type strains): virus-induced cytopathicity in HEL cell cultures. It counts as cell-based, varicella-zoster virus. To be noted: for EC50: HEL cell cultures.
Series [7] has as its system HEL cells. To be noted: anti-VZV table.
Series [8] concerns HEL cells. To be noted: read-out: CC50 (HEL); HEL cells; anti-VZV table.
Series [9] concerns FCV. Briefly: Feline corona virus assay in Feline Crandel kidney cells (MTS). It counts as cell-based. The note with it: for EC50: FCV in FCK cells, read-out: EC50 FCV. Here is the method: Feline Crandel kidney cells were seeded in 96-well microtiter plates at 24,000 cells/well. Then, 24 hrs later, an appropriate inoculum of FCV is added together with 5-fold dilutions of the test compounds. After 4 days, a MTS/PMS solution was added to each well. Following a 90 min incubation period at 37° C., the optical density of the wells was read at 498 nm in a microplate reader.

In series [10] the test system is FCK cells. The note with it: read-out: CC50 FCK; FCK cells.
Setting [11] is: VZV strain OKA, read-out: EC50 VZV (OKA).
Where [12] appears, read: VZV strain YS, read-out: EC50 VZV (YS).

For `CNC(=O)C1NC(=O)C2NC(=O)C(NC(=O)C3NC(=O)C(CC(N)=O)NC(=O)C(NC(=O)C(CC(C)C)NC)C(O)c4ccc(c(Cl)c4)Oc4cc3cc(c4O)Oc3ccc(cc3)C2O)c2ccc(O)c(c2)-c2c1cc(O)c(CN1CCN(Cc3ccc(-c4ccccc4)cc3)CC1)c2O` (stereo not shown) [Compound 8], the EC50 in [1] turned out to be 4 ± 1.7 µM; in series [2], 5.5 ± 0.7 µM; in [6] (setting [11]), 2300 nM; in [6] (setting [12]) it was 1500 nM. Besides, the IC50 in [3], in series [4] and in series [5] was > 100 µM throughout. For the same compound, in series [6], the “activity against VZV” value is on record as “pronounced activity”. Moreover, the “MTC (HEL)” value in series [7] is “≧20 μM”. In addition, in series [8], the 50% cytotoxic concentration (CC50) (usually the concentration giving 50% cytotoxicity) was > 50 µM.

`CCCCc1ccc(CNC2C(Oc3c4cc5cc3Oc3ccc(cc3Cl)C(O)C3NC(=O)C(NC(=O)C5NC(=O)C5NC(=O)C(Cc6ccc(cc6)O4)NC(=O)C(NC)c4ccc(O)c(c4)Oc4cc(O)c(Cl)c5c4)c4ccc(O)c(c4)-c4c(cc(O)c(CN5CCN(Cc6ccc(-c7ccccc7)cc6)CC5)c4O)C(C(=O)NCCCN(C)C)NC3=O)OC(C(=O)NCCCN(C)C)C(O)C2O)cc1` (stereo not shown) [Compound 13]: the results for the EC50 in [1], in series [2] and in series [9] were 3.5 ± 2.1 µM, 20 µM and 5.9 µM, respectively. The IC50 in series [3] was determined as 25 ± 0.7 µM; in [4], 35 ± 6.1 µM; in series [5] it was 212 ± 54 µM. Also, the “activity against FCV” value in series [9] is on record as “pronounced activity”. Besides, the 50% cytotoxic concentration (CC50) in series [10] was determined as 30 µM.

Turning to `CCCCCCCCCCNC(=O)C(N)CCCCNCc1c(O)cc2c(c1O)-c1cc(ccc1O)C1NC(=O)C3NC(=O)C4NC(=O)C(Cc5ccc(c(Cl)c5)Oc5cc3cc(c5O)Oc3ccc(cc3Cl)C(O)C(NC1=O)C(=O)NC2C(=O)NCCCN(C)C)NC(=O)C(N)c1ccc(O)c(c1)Oc1cc(O)cc4c1` (stereo not shown) [Compound 16], the EC50 in series [1] amounted to 3.5 ± 0.7 µM; in [2], 5.5 ± 2.1 µM; in series [6] (setting [11]), 2500 nM; in series [6] (setting [12]), 2400 nM. Further, the figures for the IC50 in series [3], in [4] and in series [5] were 19 ± 5 µM, 76 ± 8 µM and 389 ± 99 µM, respectively. Besides, in [7], the “MTC (HEL)” value is listed as “≧5-50 μM”. Further, the half-maximal cytotoxic concentration (CC50) in [8] was 137 µM.

With `NC1C(=O)NC2Cc3ccc(c(Cl)c3)Oc3cc4cc(c3O)Oc3ccc(cc3Cl)C(O)C3NC(=O)C(NC(=O)C4NC(=O)C(NC2=O)c2cc(O)cc(c2)Oc2cc1ccc2O)c1ccc(O)c(c1)-c1c(cc(O)c(CN2CCN(N=Cc4ccc(Cl)cc4)CC2)c1O)C(C(=O)O)NC3=O` (stereo not shown) [Compound 17], the EC50 in series [1] came to 8 ± 2.8 µM; in series [2] it was 22 ± 3.5 µM; in series [6] (setting [11]), 4100 nM; in series [6] (setting [12]) it was 4200 nM. In addition, the results for the IC50 in [3], in [4] and in series [5] were 97 ± 4.3 µM, > 100 µM and > 100 µM, respectively. Also, in series [7], the “MTC (HEL)” value is listed as “≧20-200 μM”. Further, in [8], the 50% cytotoxic concentration (CC50) is > 50 µM.

Regarding `CCCCCCCCCCNC(=O)C1NC(=O)C2NC(=O)C(NC(=O)C3NC(=O)C4NC(=O)C(Cc5ccc(c(Cl)c5)Oc5cc3cc(c5O)Oc3ccc(cc3Cl)C2O)NC(=O)C(N)c2ccc(O)c(c2)Oc2cc(O)cc4c2)c2ccc(O)c(c2)-c2c1cc(O)c(CNCCCN(C)C)c2O` (stereo not shown) [Compound 20], the EC50 in [1] was 4.5 ± 0.7 µM; in [2], 44 ± 1.4 µM; in series [6] (setting [11]), 2000 nM; in [6] (setting [12]), 2300 nM. Besides, the IC50 in series [3] was found to be 17 ± 9 µM; in [4] it was 58 ± 12 µM; in series [5], 53 ± 11 µM. The “MTC (HEL)” value in series [7] is recorded as “≧5-20 μM”. Besides, the CC50 in series [8] was 169 µM.

Turning to `CCCCCCCCCCNCc1c(O)cc2c(c1O)-c1cc(ccc1O)C1NC(=O)C3NC(=O)C4NC(=O)C(Cc5ccc(c(Cl)c5)Oc5cc3cc(c5O)Oc3ccc(cc3Cl)C(O)C(NC1=O)C(=O)NC2C(=O)NC)NC(=O)C(NC(=O)C(N)CCCCN)c1ccc(O)c(c1)Oc1cc(O)cc4c1` (stereo not shown) [Compound 24], the EC50 stood at 4 µM in series [1], 6 µM in series [2], 1200 nM in series [6] (setting [11]) and 1900 nM in series [6] (setting [12]). The IC50 stood at 12 ± 6 µM in series [3], 41 ± 8 µM in [4] and 46 ± 8 µM in series [5]. The “MTC (HEL)” value in series [7] is listed as “≧5 μM”. The CC50 in [8] came to 87 µM.

Consider `CCCCCCCCCCCNC1C(=O)NC2Cc3ccc(c(Cl)c3)Oc3cc4cc(c3O)Oc3ccc(cc3Cl)C(O)C3NC(=O)C(NC(=O)C4NC(=O)C(NC2=O)c2cc(O)cc(c2)Oc2cc1ccc2O)c1ccc(O)c(c1)-c1c(O)cc(O)cc1C(C(=O)NCCCN(C)C)NC3=O` (stereo not shown) [Compound 32], for which the EC50 in series [1] is 5.5 ± 2.1 µM; in series [2], 12.5 ± 3.5 µM; in series [6] (setting [11]), ≥ 5000 nM; in series [6] (setting [12]), 2300 nM. The IC50 in [3] was determined as 23 ± 7 µM; in [4], 35 ± 2 µM; in [5] it was 90 ± 27 µM. Also, in series [7], the “MTC (HEL)” value was found to be 20 µM. The 50% cytotoxic concentration (CC50) in [8] came to 30 µM.

Take `CCCCCCCCCC[N+](C)(C)CCCNCc1c(O)cc2c(c1O)-c1cc(ccc1O)C1NC(=O)C3NC(=O)C4NC(=O)C(Cc5ccc(c(Cl)c5)Oc5cc3cc(c5O)Oc3ccc(cc3Cl)C(O)C(NC1=O)C(=O)NC2C(=O)O)NC(=O)C(N)c1ccc(O)c(c1)Oc1cc(O)cc4c1` (stereo not shown) [Compound 33]: the EC50 in [1] was 2.2 µM; in series [2], 7.5 ± 0.7 µM; in series [6] (setting [11]), ≥ 5000 nM; in series [6] (setting [12]), 2400 nM. For the same compound, the values for the IC50 in [3], in [4] and in series [5] were 51 ± 26 µM, 65 ± 1 µM and 74 ± 5 µM, respectively. The “MTC (HEL)” value in series [7] was in the range of 5 to 50 µM. The cytotoxic concentration (CC50) in series [8] is ≥ 200 µM.

For `CCCCCCCCCC[N+](C)(C)CCCNCc1c(O)cc2c(c1O)-c1cc(ccc1O)C1NC(=O)C3NC(=O)C4NC(=O)C(Cc5ccc(c(Cl)c5)Oc5cc3cc(c5O)Oc3ccc(cc3Cl)C(O)C(NC1=O)C(=O)NC2C(=O)NCCO)NC(=O)C(N)c1ccc(O)c(c1)Oc1cc(O)cc4c1` (stereo not shown) [Compound 36], the EC50 in series [1] is 2.1 ± 0.14 µM; in [2], 4.2 ± 2.47 µM; in [6] (setting [11]), ≥ 5000 nM; in series [6] (setting [12]) it was 1900 nM. Besides, the IC50 in series [3] is 12 ± 0.1 µM; in series [4], 73 ± 34 µM; in [5], ≥ 100 µM. For the same compound, the “MTC (HEL)” value in series [7] is on record as “≧20-50 μM”. In addition, in [8], the CC50 was > 200 µM.

Take `CCCCCCCCCCCCCCCCCCNCc1c(O)cc2c(c1O)-c1cc(ccc1O)C1NC(=O)C3NC(=O)C(CC(N)=O)NC(=O)C(NC(=O)C(CC(C)C)NC)C(O)c4ccc(c(Cl)c4)Oc4cc3cc(c4OC3OC(CO)C(O)C(O)C3OC3CC(C)(N)C(O)C(C)O3)Oc3ccc(cc3)C(OC3CC(C)(N)C(O)C(C)O3)C(NC1=O)C(=O)NC2C(=O)O` (stereo not shown) [Compound 63]: in series [9], the “activity against FCV” value is “active” and the EC50 worked out at 3.4 µM. In series [10], the CC50 turned out to be 15 µM.

On to `NC(=O)CC1NC(=O)C(N)C(O)c2ccc(c(Cl)c2)Oc2cc3cc(c2O)Oc2ccc(cc2)C(O)C2NC(=O)C(NC(=O)C3NC1=O)c1ccc(O)c(c1)-c1c(O)cc(O)cc1C(C(=O)NCc1ccc(F)cc1)NC2=O` (stereo not shown) [Compound 106], for which the EC50 in series [1] was 27 µM; in series [2] it was 30 µM; in [9] it was 74 µM. Also, the 50% cytotoxic concentration (CC50) in series [10] was > 300 µM.

For the compound `NC(=O)CC1NC(=O)C(N)C(O)c2ccc(c(Cl)c2)Oc2cc3cc(c2O)Oc2ccc(cc2)C(O)C2NC(=O)C(NC(=O)C3NC1=O)c1ccc(O)c(c1)-c1c(O)cc(O)cc1C(C(=O)NCC13CC4CC(CC(C4)C1)C3)NC2=O` (stereo not shown) [Compound 107], the EC50 is 5 µM in series [1], 3.5 µM in series [2] and 40 µM in [9]. For the same compound, in [10], the CC50 was > 300 µM.

With `NC(=O)CC1NC(=O)C(N)C(O)c2ccc(c(Cl)c2)Oc2cc3cc(c2O)Oc2ccc(cc2)C(O)C2NC(=O)C(NC(=O)C3NC1=O)c1ccc(O)c(c1)-c1c(O)cc(O)cc1C(C(=O)N1CCC3CCCCC3C1)NC2=O` (stereo not shown) [Compound 108], the EC50 in series [1] worked out at 2.8 µM; in series [2], 2 µM; in [9], 81 µM. Also, the half-maximal cytotoxic concentration (CC50) in series [10] was > 300 µM.

Regarding `CN[C@H](CC(C)C)C(=O)N[C@H]1C(=O)N[C@@H](CC(N)=O)C(=O)N[C@H]2C(=O)N[C@H]3C(=O)N[C@H](C(=O)N[C@H](C(=O)O)c4cc(O)cc(O)c4-c4cc3ccc4O)[C@H](O)c3ccc(c(Cl)c3)Oc3cc2cc(c3O)Oc2ccc(cc2Cl)[C@H]1O` [Vancomycin aglycon], the EC50 in series [1] came to 65 ± 7.1 µM; in series [2], 250 µM. The IC50 in [3], in series [4] and in series [5] was > 500 µM each time.

Teicoplanin [reference compound]: the EC50 in [1] was 18 ± 3.5 µM; in series [2], 100 µM. Moreover, the IC50 in series [3], in [4] and in [5] was > 500 µM each time.
